≈ marks a conversion by molar mass, not a printed value.
Tests used:
Format in all cases: functional
Cryptococcus neoformans = assay: Antifungal activity against Cryptococcus neoformans assessed as growth inhibition after 72 hr by NCCLS microbroth dilution method
Candida albicans [1] = assay: Antifungal activity against Candida albicans Y0109 assessed as growth inhibition after 24 hr by NCCLS microbroth dilution method; conditions: Y0109, 24 h
Candida tropicalis = assay: Antifungal activity against Candida tropicalis assessed as growth inhibition by NCCLS microbroth dilution method
Kluyveromyces marxianus = assay: Antifungal activity against Kluyveromyces marxianus assessed as growth inhibition by NCCLS microbroth dilution method
Candida albicans [2] = assay: Antifungal activity against Candida albicans SC5314 assessed as growth inhibition after 24 hr by NCCLS microbroth dilution method; conditions: SC5314, 24 h
Candida parapsilosis = assay: Antifungal activity against Candida parapsilosis assessed as growth inhibition by NCCLS microbroth dilution method; conditions: Lodderomyces parapsilosis
Trichophyton rubrum = assay: Antifungal activity against Trichophyton rubrum assessed as growth inhibition by NCCLS microbroth dilution method
Aspergillus fumigatus = assay: Antifungal activity against Aspergillus fumigatus assessed as growth inhibition by NCCLS microbroth dilution method

Structure (SMILES): Cc1cc(=O)oc2cc(Oc3ccc(NC(=O)c4ccccc4)cn3)ccc12
- MIC80 (Cryptococcus neoformans): 16 µg/mL (≈ 43 µM)
- MIC80 (Candida albicans [1]): 4 µg/mL (≈ 10.7 µM)
- MIC80 (Candida tropicalis): 16 µg/mL
- MIC80 (Kluyveromyces marxianus): 32 µg/mL
- MIC80 (Candida albicans [2]): 16 µg/mL (≈ 43 µM)
- MIC80 (Candida parapsilosis): 1 µg/mL
- MIC80 (Trichophyton rubrum): 8 µg/mL
- MIC80 (Aspergillus fumigatus): > 64 µg/mL

Structure (SMILES): Cc1cc(=O)oc2cc(Oc3ccc(NC(=O)c4ccccn4)cn3)ccc12
- MIC80 (Cryptococcus neoformans): 32 µg/mL (≈ 85.7 µM)
- MIC80 (Candida albicans [1]): 16 µg/mL (≈ 42.9 µM)
- MIC80 (Candida tropicalis): 16 µg/mL
- MIC80 (Kluyveromyces marxianus): 16 µg/mL
- MIC80 (Candida albicans [2]): 16 µg/mL (≈ 42.9 µM)
- MIC80 (Candida parapsilosis): 32 µg/mL
- MIC80 (Trichophyton rubrum): 16 µg/mL
- MIC80 (Aspergillus fumigatus): > 64 µg/mL

Structure (SMILES): Cc1cc(=O)oc2cc(Oc3ccc(NC(=O)c4cccnc4)cn3)ccc12
- MIC80 (Cryptococcus neoformans): 16 µg/mL (≈ 42.9 µM)
- MIC80 (Candida albicans [1]): 32 µg/mL (≈ 85.7 µM)
- MIC80 (Candida tropicalis): 32 µg/mL
- MIC80 (Kluyveromyces marxianus): 16 µg/mL
- MIC80 (Candida albicans [2]): 32 µg/mL (≈ 85.7 µM)
- MIC80 (Candida parapsilosis): 32 µg/mL
- MIC80 (Trichophyton rubrum): 32 µg/mL
- MIC80 (Aspergillus fumigatus): > 64 µg/mL

Structure (SMILES): Cc1cc(=O)oc2cc(Oc3ccc(NC(=O)c4ccncc4)cn3)ccc12
- MIC80 (Cryptococcus neoformans): 32 µg/mL (≈ 85.7 µM)
- MIC80 (Candida albicans [1]): 16 µg/mL (≈ 42.9 µM)
- MIC80 (Candida tropicalis): 16 µg/mL
- MIC80 (Kluyveromyces marxianus): 8 µg/mL
- MIC80 (Candida albicans [2]): 16 µg/mL (≈ 42.9 µM)
- MIC80 (Candida parapsilosis): 0.25 µg/mL
- MIC80 (Trichophyton rubrum): 32 µg/mL
- MIC80 (Aspergillus fumigatus): > 64 µg/mL

Structure (SMILES): Cc1cc(=O)oc2cc(Oc3ccc(NC(=O)c4ccco4)cn3)ccc12
- MIC80 (Cryptococcus neoformans): > 64 µg/mL
- MIC80 (Candida albicans [1]): 16 µg/mL (≈ 44.2 µM)
- MIC80 (Candida tropicalis): 8 µg/mL
- MIC80 (Kluyveromyces marxianus): 16 µg/mL
- MIC80 (Candida albicans [2]): 32 µg/mL (≈ 88.3 µM)
- MIC80 (Candida parapsilosis): > 64 µg/mL
- MIC80 (Trichophyton rubrum): 16 µg/mL
- MIC80 (Aspergillus fumigatus): > 64 µg/mL

Structure (SMILES): Cc1cc(=O)oc2cc(Oc3ccc(NC(=O)c4cnccn4)cn3)ccc12
- MIC80 (Cryptococcus neoformans): 1 µg/mL (≈ 2.67 µM)
- MIC80 (Candida albicans [1]): 4 µg/mL (≈ 10.7 µM)
- MIC80 (Candida tropicalis): 1 µg/mL
- MIC80 (Kluyveromyces marxianus): 16 µg/mL
- MIC80 (Candida albicans [2]): 4 µg/mL (≈ 10.7 µM)
- MIC80 (Candida parapsilosis): 32 µg/mL
- MIC80 (Trichophyton rubrum): 0.25 µg/mL
- MIC80 (Aspergillus fumigatus): > 64 µg/mL

Structure (SMILES): Cc1cnc(C(=O)Nc2ccc(Oc3ccc4c(C)cc(=O)oc4c3)nc2)cn1
- MIC80 (Cryptococcus neoformans): 4 µg/mL (≈ 10.3 µM)
- MIC80 (Candida albicans [1]): 16 µg/mL (≈ 41.2 µM)
- MIC80 (Candida tropicalis): 1 µg/mL
- MIC80 (Kluyveromyces marxianus): 4 µg/mL
- MIC80 (Candida albicans [2]): 16 µg/mL (≈ 41.2 µM)
- MIC80 (Candida parapsilosis): > 64 µg/mL
- MIC80 (Trichophyton rubrum): 16 µg/mL
- MIC80 (Aspergillus fumigatus): > 64 µg/mL

Structure (SMILES): Cc1cc(=O)oc2cc(Oc3ccc(NC(=O)Cc4ccccc4)cn3)ccc12
- MIC80 (Cryptococcus neoformans): > 64 µg/mL
- MIC80 (Candida albicans [1]): > 64 µg/mL
- MIC80 (Candida tropicalis): > 64 µg/mL
- MIC80 (Kluyveromyces marxianus): > 64 µg/mL
- MIC80 (Candida albicans [2]): > 64 µg/mL
- MIC80 (Candida parapsilosis): > 64 µg/mL
- MIC80 (Trichophyton rubrum): > 64 µg/mL
- MIC80 (Aspergillus fumigatus): > 64 µg/mL

Structure (SMILES): Cc1cc(=O)oc2cc(Oc3ccc(NC(=O)/C=C/c4ccccc4)cn3)ccc12
- MIC80 (Cryptococcus neoformans): > 64 µg/mL
- MIC80 (Candida albicans [1]): > 64 µg/mL
- MIC80 (Candida tropicalis): > 64 µg/mL
- MIC80 (Kluyveromyces marxianus): 16 µg/mL
- MIC80 (Candida albicans [2]): > 64 µg/mL
- MIC80 (Candida parapsilosis): > 64 µg/mL
- MIC80 (Trichophyton rubrum): 4 µg/mL
- MIC80 (Aspergillus fumigatus): > 64 µg/mL

Structure (SMILES): C[C@@H]1[C@H](O)[C@@H](C)/C=C/C=C/C=C/C=C/C=C/C=C/C=C/[C@H](O[C@@H]2O[C@H](C)[C@@H](O)[C@H](N)[C@@H]2O)C[C@@H]2O[C@](O)(C[C@@H](O)C[C@@H](O)[C@H](O)CC[C@@H](O)C[C@@H](O)CC(=O)O[C@H]1C)C[C@H](O)[C@H]2C(=O)O [AMPHOTERICIN B]
- MIC80 (Cryptococcus neoformans): 1 µg/mL (≈ 1.08 µM)
- MIC80 (Candida albicans [1]): 0.25 µg/mL (≈ 0.271 µM)
- MIC80 (Candida tropicalis): 1 µg/mL
- MIC80 (Kluyveromyces marxianus): 0.25 µg/mL
- MIC80 (Candida albicans [2]): 0.25 µg/mL (≈ 0.271 µM)
- MIC80 (Candida parapsilosis): 1 µg/mL
- MIC80 (Trichophyton rubrum): 1 µg/mL
- MIC80 (Aspergillus fumigatus): 1 µg/mL

Structure (SMILES): OC(Cn1cncn1)(Cn1cncn1)c1ccc(F)cc1F [FLUCONAZOLE]
- MIC80 (Cryptococcus neoformans): 4 µg/mL (≈ 13.1 µM)
- MIC80 (Candida albicans [1]): 0.25 µg/mL (≈ 0.816 µM)
- MIC80 (Candida tropicalis): 4 µg/mL
- MIC80 (Kluyveromyces marxianus): 4 µg/mL
- MIC80 (Candida albicans [2]): 0.25 µg/mL (≈ 0.816 µM)
- MIC80 (Candida parapsilosis): 4 µg/mL
- MIC80 (Trichophyton rubrum): 1 µg/mL
- MIC80 (Aspergillus fumigatus): > 64 µg/mL

Structure (SMILES): Cc1cc(=O)oc2cc(O)ccc12 [HYMECROMONE]
- MIC80 (Cryptococcus neoformans): > 64 µg/mL
- MIC80 (Candida albicans [1]): > 64 µg/mL
- MIC80 (Candida tropicalis): > 64 µg/mL
- MIC80 (Kluyveromyces marxianus): > 64 µg/mL
- MIC80 (Candida albicans [2]): > 64 µg/mL
- MIC80 (Candida parapsilosis): 32 µg/mL
- MIC80 (Trichophyton rubrum): 32 µg/mL
- MIC80 (Aspergillus fumigatus): > 64 µg/mL
